Experimental data: paper PMC11062922 (Nature Chemical Biology, 2023)

Key:
[1] = target: T1, EGFR (Homo sapiens, UniProt P00533); assay: Kinobeads two-dose competition binding: EGFR; conditions: for CATDS: target EGFR
T1 construct: endogenous in cells

[2] = tested on: AIFM1; assay: Kinobeads competition binding: AIFM1; parameters: species or system human; conditions: target AIFM1
[3] = target: T2, AKT2 (Homo sapiens, UniProt P31751); assay: Kinobeads competition binding: AKT2; conditions: target AKT2
T2 construct: endogenous in cells

[4] = target: T3, AKT3 (Homo sapiens, UniProt Q9Y243); assay: Kinobeads competition binding: AKT3; conditions: target AKT3
T3 construct: endogenous in cells

[5] = target: T4, CDC7 (Homo sapiens, UniProt O00311); assay: Kinobeads competition binding: CDC7; conditions: target CDC7
T4 construct: endogenous in cells

[6] = tested on: CDK1; assay: Kinobeads competition binding: CDK1; parameters: species or system human; conditions: target CDK1
[7] = target: T5, CSNK1G3 (Homo sapiens, UniProt Q9Y6M4); assay: Kinobeads competition binding: CSNK1G3; conditions: target CSNK1G3;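 also: share of total target engagement due to this protein at one drug concentration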
T5 construct: endogenous in cells
Excerpt: Supplement 41589_2023_1459_MOESM4_ESM.xlsx, sheet "CATDS matrix" | column: CSNK1G3

[8] = target: T6, DYRK1A (Homo sapiens, UniProt Q13627); assay: Kinobeads competition binding: DYRK1A; conditions: target DYRK1A
T6 construct: endogenous in cells

[9] = target: T7, EPHA2 (Homo sapiens, UniProt P29317); assay: Kinobeads competition binding: EPHA2; conditions: target EPHA2
T7 construct: endogenous in cells
Excerpt: Supplement 41589_2023_1459_MOESM4_ESM.xlsx, sheet "CATDS matrix" | column: EPHA2

[10] = target: T8, ERN1 (Homo sapiens, UniProt O75460); assay: Kinobeads competition binding: ERN1; conditions: target ERN1
T8 construct: endogenous in cells
Excerpt: Supplement 41589_2023_1459_MOESM4_ESM.xlsx, sheet "CATDS matrix" | column: ERN1

[11] = tested on: FECH; assay: Kinobeads competition binding: FECH; parameters: species or system human; conditions: target FECH
[12] = target: T9, FES (Homo sapiens, UniProt P07332); assay: Kinobeads competition binding: FES; conditions: target FES;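 also: selectivity score: engagement of this protein divided by summed engagement of all targets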
T9 construct: endogenous in cells
Excerpt: Supplement 41589_2023_1459_MOESM4_ESM.xlsx, sheet "CATDS matrix" | column: FES

[13] = tested on: LCK; assay: Kinobeads competition binding: LCK; parameters: species or system human; conditions: target LCK
[14] = tested on: LYN; assay: Kinobeads competition binding: LYN; parameters: species or system human; conditions: target LYN
[15] = tested on: MAP3K11; assay: Kinobeads competition binding: MAP3K11; parameters: species or system human; conditions: target MAP3K11
[16] = tested on: MAPK11; assay: Kinobeads competition binding: MAPK11; parameters: species or system human; conditions: target MAPK11
[17] = tested on: MAPK7; assay: Kinobeads competition binding: MAPK7; parameters: species or system human; conditions: target MAPK7
[18] = target: T10, MAPKAPK2 (Homo sapiens, UniProt P49137); assay: Kinobeads competition binding: MAPKAPK2; conditions: target MAPKAPK2
T10 construct: endogenous in cells

[19] = tested on: NAT10; assay: Kinobeads competition binding: NAT10; parameters: species or system human; conditions: target NAT10
[20] = tested on: NLK; assay: Kinobeads competition binding: NLK; parameters: species or system human; conditions: target NLK;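 also: selectivity score: engagement of this protein divided by summed engagement of all targets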
[21] = tested on: OPA1; assay: Kinobeads competition binding: OPA1; parameters: species or system human; conditions: target OPA1;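 also: target engagement share of this target among all targets at its Kdapp concentration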
[22] = target: T11, PDGFRB (Homo sapiens, UniProt P09619); assay: Kinobeads competition binding: PDGFRB; conditions: target PDGFRB;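 also: share of total target engagement due to this protein at one drug concentration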
T11 construct: a mixture of lysates from five cancer cell lines; endogenous in cells
Excerpt: Supplement 41589_2023_1459_MOESM4_ESM.xlsx, sheet "CATDS matrix" | column: PDGFRB

[23] = target: T12, PIK3C3 (Homo sapiens, UniProt Q8NEB9); assay: Kinobeads competition binding: PIK3C3; conditions: target PIK3C3
T12 construct: a mixture of lysates from five cancer cell lines; endogenous in cells

T9 sequence (P07332 whole entry): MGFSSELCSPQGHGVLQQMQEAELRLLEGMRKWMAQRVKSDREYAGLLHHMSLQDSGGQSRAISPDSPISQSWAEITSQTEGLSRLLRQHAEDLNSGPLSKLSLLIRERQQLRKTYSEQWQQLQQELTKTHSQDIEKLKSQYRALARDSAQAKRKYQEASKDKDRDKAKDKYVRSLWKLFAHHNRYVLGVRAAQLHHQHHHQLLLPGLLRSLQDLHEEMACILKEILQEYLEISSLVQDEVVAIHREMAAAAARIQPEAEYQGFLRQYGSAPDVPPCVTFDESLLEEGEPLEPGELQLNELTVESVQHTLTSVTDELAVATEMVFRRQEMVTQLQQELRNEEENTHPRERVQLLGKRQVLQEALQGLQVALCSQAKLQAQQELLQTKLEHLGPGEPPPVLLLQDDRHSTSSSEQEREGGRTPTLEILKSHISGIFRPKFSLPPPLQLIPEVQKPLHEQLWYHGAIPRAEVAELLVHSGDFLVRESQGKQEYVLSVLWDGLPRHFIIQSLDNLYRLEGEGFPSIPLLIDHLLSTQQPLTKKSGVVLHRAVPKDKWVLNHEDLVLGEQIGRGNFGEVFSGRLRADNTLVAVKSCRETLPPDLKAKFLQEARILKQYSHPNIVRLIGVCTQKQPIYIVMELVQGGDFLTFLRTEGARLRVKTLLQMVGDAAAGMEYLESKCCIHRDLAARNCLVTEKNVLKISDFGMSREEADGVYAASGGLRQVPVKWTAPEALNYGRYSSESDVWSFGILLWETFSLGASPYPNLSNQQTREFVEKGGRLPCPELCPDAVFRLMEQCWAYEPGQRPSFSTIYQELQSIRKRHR
T11 sequence (P09619 33-1106): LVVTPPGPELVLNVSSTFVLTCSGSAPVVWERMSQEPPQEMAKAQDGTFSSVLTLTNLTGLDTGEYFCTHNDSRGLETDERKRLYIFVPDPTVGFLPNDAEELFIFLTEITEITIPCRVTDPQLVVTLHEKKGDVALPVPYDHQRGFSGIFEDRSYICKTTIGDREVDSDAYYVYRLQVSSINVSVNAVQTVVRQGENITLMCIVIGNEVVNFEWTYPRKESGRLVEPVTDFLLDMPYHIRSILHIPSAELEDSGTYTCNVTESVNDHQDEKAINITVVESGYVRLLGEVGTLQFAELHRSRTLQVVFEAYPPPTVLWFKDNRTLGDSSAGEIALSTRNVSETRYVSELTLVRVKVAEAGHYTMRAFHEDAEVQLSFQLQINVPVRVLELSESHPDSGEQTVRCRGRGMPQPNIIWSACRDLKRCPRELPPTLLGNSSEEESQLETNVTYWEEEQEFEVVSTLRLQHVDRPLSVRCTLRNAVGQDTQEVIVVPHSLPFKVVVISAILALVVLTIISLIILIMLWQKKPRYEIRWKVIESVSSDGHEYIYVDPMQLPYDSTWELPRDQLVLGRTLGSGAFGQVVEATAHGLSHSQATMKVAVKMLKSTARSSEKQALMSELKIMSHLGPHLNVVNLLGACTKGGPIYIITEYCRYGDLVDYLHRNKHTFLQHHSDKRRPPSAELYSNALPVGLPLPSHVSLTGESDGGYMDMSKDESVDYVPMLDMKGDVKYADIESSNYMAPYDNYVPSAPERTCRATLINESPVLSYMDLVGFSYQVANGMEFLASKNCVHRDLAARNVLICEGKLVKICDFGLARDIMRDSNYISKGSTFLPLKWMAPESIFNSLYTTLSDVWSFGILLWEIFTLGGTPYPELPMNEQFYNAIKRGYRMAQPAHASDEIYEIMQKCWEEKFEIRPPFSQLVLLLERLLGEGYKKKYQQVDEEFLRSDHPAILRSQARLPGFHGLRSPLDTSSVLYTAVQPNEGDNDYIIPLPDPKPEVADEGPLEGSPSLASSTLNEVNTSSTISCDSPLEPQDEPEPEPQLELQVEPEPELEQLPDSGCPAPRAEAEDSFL
T3 sequence (Q9Y243 whole entry): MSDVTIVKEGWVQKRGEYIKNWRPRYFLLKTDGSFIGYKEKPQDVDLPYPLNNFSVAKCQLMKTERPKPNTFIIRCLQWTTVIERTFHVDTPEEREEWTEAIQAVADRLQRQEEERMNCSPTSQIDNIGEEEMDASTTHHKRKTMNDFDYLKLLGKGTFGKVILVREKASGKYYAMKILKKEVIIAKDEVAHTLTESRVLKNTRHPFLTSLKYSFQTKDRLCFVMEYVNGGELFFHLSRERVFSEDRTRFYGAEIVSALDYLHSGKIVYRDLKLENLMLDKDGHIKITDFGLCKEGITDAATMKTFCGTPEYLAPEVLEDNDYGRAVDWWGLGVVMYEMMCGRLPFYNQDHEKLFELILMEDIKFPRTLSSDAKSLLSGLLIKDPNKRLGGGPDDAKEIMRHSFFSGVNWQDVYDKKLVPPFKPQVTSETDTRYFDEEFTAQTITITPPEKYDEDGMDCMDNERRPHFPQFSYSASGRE
T2 sequence (P31751 whole entry): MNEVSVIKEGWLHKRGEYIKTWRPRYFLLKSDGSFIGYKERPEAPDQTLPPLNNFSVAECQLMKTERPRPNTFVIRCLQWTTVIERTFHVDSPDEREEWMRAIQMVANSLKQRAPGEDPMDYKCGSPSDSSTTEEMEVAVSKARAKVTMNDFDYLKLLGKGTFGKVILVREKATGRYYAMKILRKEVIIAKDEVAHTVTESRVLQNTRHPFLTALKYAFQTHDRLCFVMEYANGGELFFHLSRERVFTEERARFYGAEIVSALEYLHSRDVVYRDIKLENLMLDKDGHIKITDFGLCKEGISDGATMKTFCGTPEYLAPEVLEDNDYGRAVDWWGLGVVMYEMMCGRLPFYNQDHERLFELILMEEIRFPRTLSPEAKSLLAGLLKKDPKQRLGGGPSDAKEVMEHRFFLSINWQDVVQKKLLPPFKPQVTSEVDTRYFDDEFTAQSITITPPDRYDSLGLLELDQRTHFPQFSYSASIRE
T8 sequence (O75460 19-977): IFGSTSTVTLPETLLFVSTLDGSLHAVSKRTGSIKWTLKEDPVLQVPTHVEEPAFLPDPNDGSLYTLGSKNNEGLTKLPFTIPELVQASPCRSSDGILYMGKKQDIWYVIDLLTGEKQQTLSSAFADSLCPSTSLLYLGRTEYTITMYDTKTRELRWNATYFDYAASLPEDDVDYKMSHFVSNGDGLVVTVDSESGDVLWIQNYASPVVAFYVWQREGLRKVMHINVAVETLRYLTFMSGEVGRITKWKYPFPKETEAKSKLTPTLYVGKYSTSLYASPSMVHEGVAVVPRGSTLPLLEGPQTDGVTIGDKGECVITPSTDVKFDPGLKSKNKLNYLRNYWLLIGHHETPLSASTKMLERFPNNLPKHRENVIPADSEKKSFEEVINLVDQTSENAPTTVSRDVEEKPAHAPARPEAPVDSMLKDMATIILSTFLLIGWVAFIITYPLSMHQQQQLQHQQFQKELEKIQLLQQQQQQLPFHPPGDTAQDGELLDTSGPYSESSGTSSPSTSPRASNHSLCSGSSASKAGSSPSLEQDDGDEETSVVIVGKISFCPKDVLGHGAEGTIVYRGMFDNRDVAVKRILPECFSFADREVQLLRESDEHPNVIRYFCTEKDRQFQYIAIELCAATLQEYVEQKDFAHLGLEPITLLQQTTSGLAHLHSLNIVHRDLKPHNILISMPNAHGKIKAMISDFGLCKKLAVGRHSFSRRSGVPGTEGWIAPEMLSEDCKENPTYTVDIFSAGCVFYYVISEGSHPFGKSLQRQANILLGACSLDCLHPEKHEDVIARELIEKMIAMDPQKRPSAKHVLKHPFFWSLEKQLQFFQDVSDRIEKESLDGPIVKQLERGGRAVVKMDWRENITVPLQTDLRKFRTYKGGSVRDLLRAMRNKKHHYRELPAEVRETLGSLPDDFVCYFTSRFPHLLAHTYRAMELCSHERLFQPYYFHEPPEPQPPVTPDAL
T5 sequence (Q9Y6M4 whole entry): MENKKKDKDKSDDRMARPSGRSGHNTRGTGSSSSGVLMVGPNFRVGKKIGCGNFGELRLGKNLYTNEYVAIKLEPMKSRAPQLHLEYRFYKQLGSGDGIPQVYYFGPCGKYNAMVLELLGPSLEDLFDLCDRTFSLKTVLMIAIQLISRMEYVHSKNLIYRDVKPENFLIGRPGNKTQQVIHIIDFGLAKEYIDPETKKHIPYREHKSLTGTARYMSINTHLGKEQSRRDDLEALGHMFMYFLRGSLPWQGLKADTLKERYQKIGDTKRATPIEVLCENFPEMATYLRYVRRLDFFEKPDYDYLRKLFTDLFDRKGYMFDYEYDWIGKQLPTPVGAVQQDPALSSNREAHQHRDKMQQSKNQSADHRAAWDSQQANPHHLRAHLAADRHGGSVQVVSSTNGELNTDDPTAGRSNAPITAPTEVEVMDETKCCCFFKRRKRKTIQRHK
T10 sequence (P49137 whole entry): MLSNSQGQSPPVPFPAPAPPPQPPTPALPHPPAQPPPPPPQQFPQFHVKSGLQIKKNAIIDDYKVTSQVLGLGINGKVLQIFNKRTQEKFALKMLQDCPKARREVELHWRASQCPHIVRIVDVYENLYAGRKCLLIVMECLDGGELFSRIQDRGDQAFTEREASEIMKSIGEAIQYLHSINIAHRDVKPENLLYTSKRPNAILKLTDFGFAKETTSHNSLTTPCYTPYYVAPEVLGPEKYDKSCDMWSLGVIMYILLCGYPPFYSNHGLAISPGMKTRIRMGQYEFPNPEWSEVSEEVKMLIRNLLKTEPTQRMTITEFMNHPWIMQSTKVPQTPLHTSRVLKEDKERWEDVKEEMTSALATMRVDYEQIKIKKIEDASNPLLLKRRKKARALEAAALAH

Structure (SMILES)	CATDS [1]	CATDS [2]	CATDS [3]	CATDS [4]	CATDS [5]	CATDS [7]	CATDS [9]	CATDS [10]	CATDS [11]	CATDS [12]	CATDS [13]	CATDS [14]	CATDS [15]	CATDS [16]	CATDS [17]	CATDS [18]	CATDS [19]	CATDS [20]	CATDS [21]	CATDS [22]	further results
Nc1ncnc2[nH]c(-c3ccccc3)nc12 [AH5015_KCGS]	0	0	0	0	0	0	0	0	0	0	0	0	0	0	0	0	0	0	0	0	CATDS [6]: 0; CATDS [8]: 0; CATDS [23]: 0
CCN1CCN(Cc2ccc(Nc3ncc(F)c(-c4cc(F)c5nc(C)n(C(C)C)c5c4)n3)nc2)CC1 [Abemaciclib]	0	0	0	0	0	0	0	0	0	0	0	0	0	0	0	0	0	0	0	0	CATDS [23]: 0
CN(C)C/C=C/C(=O)Nc1cc2c(Nc3ccc(F)c(Cl)c3)ncnc2cc1O[C@H]1CCOC1 [Afatinib]		0				0	0	0	0	0							0		0	0	
CCc1cc2c(cc1N1CCC(N3CCOCC3)CC1)C(C)(C)c1[nH]c3cc(C#N)ccc3c1C2=O [Alectinib]	0	0	0	0	0	0	0	0	0	0	0	0	0	0	0	0	0	0	0	0	CATDS [6]: 0; CATDS [8]: 0; CATDS [23]: 0
N#CC1(c2ccc(NC(=O)c3cccnc3NCc3ccncc3)cc2)CCCC1 [Apatinib]	0	0	0	0	0	0	0	0	0	0	0	0	0	0	0	0	0	0	0	0	CATDS [6]: 0; CATDS [8]: 0; CATDS [23]: 0
C#Cc1cccc(Nc2ncnc3cc(OC)c(OC4CCN(C)CC4)cc23)c1 [BI00007366]																					potency estimated from few doses ([1]; Kinobeads two-dose, Drugmatrix - all 2, read-out: apparent Kd EGFR): > 1000 nM
